Assay results reported in patent US4483853A, “Amino acid isomers, their production and their medicinal use” (priority 1981, dated 1984).
Read-outs that look alike come from different tables or passages of the source.

What was measured:
[1] = system: kainate-induced excitation; details: cited from earlier work
[2] = system: NMDA; details: cited from earlier work
[3] = system: sound-induced seizures; assay: Sound-induced (audiogenic) seizures in DBA/2 mice, i.c.v. or i.p. (WR, clonus, tonus); type: in vivo; details: for activity (in words) / Minimum dose to suppress WR / ED50 Clonus / ED50 Tonus / ED50 WR: DBA/2 mice, i.c.v.; for Minimum dose to suppress WR: 45 minutes before sound, P < .01; for ED50 WR: wild running phase; for order of potency: congeneric series of phosphonic acid analogues, i.c.v. DBA/2 mice
Description: (§1) Dicarboxylic amino acids and their thio-analogues were tested as potential anticonvulsants in animal models of epilepsy by being administered intracerebroventricularly (i.c.v.) or intraperitoneally (i.p.) in mice (either DBA/2 mice showing sound-induced seizures, or Swiss S mice given a just-convulsant dose of pentylenetetrazol, s.c.) or intravenously in baboons, Papio papio, with photosensitive epilepsy. A close correlation was found between the ability of antagonists to block excitation due to NMDA (N-methyl-D-aspartic acid) and suppression of sound-induced seizures following i.c.v. injection in DBA/2 mice. […] Following systemic administration in mice 2-amino-7-phosphonoheptanoic acid was active against sound-induced seizures (0.1-0.33 mmoles/kg, i.p.) and against pentylenetetrazol seizures (1.2 mmoles/kg). It is also active against photosensitive epileptic responses in baboons (1.0 mmoles/kg, i.v.)
(i) Anticonvulsant activity of excitatory amino acid antagonists in DBA/2 mice
DBA/2 mice were chosen as being an inbred strain in which, within a critical age range, a fixed sequence of seizure response can be induced by a loud sound. Groups of DBA/2 mice (N=6 to 10), 21 to 28 days old, were injected intracerebroventricularly under light ether anesthesia with 10 μl of drug solution or phosphate buffer alone (pH 7.3). Auditory stimulation (electric bell generating 109 dB at mouse level) was applied 45 minutes later for 60 seconds or until tonic extension was observed and the incidence and timing of the phases of the seizure response were recorded. These included an initial wild running phase (WR) followed by myocolonus, tonic flexion, and extension and, frequently, respiratory arrest. Seizure response was scored as described in Eur. J. Pharmacol 59, 75 (1979), and comparisons between groups of control and drug-treated animals were made by using Fisher's exact probability test. Successive doses, with a geometric factor of 3, were tested until an adequate log dose-response curve (three to six points) could be constructed for each antagonist for each phase of the seizure response, and ED50 values were graphically determined. A rank order of anticonvulsant potency was allocated to each antagonist for comparison with iontophoretic data; O denoting no activity and X to XXXX denoting increasingly marked activity.
(§2) Studies of audiogenic seizures were performed as described in Example(i). For intraperitoneal administration the antagonist was injected with 0.1 ml of saline 45 minutes before testing. Antagonism of pentylenetetrazol (PTZ: threshold) seizures was studied in random-bred Swiss mice (Tuck T/O strain: 28 days old; 20 to 23 g). Mice in groups (N=10) received pentylenetetrazol (85 mg/kg: 0.85 percent solution in 0.9 percent sodium chloride) subcutaneously in a loose fold of skin on the back of the neck 45 minutes after intracerenroventricular or intraperitoneal administration of drug or vehicle. During the 30-minute observation period sustained rhythmic clonic jerking with tonic spasms occured in 90 to 100 percent of control mice. The incidence and timing of clonic episodes was recorded with absence of sustained clonic jerking (no episode of 5 seconds duration or longer) being defined as protection. The ED50 values and 95 percent fiducial limits were estimated by using the method of moving averages (by the method described in Biometrics 8, 249 (1952) with data from four successive dose levels.

[4] = system: quisqualate receptor; details: cited from earlier work
[5] = system: Kainic acid-excited receptors; assay: Block of kainic acid-excited receptors; details: CNS receptors
[6] = system: ibotenic acid-excited receptors; assay: Block of ibotenic acid-excited receptors; details: CNS receptors
[7] = system: pentylenetetrazol seizures; assay: Pentylenetetrazol-induced seizures in Swiss S mice; type: in vivo
Description: as §1, §2

[8] = system: photosensitive epileptic responses; assay: Photosensitive epilepsy in baboons; type: in vivo, Papio papio; details: i.v.
Description: as §1

## N[C@H](CCC(=O)NCC(=O)O)C(=O)O [γ-D-Glutamylglycine, reference compound]
[1]
  antagonism of kainate-induced excitation: antagonist of both kainate and NMDA-induced excitation
[2]
  antagonism of NMDA-induced excitation: antagonist of both kainate and NMDA-induced excitation
[3]
  activity (in words): equipotent with 2-amino-5-phosphonoheptanoic acid
  Minimum dose to suppress WR: 0.1 μ mole
  ED50 Clonus: 0.046 μ mole
  ED50 Tonus: 0.054 μ mole
  ED50 WR: 0.058 μ mole

## NC(CCP(=O)(O)O)C(=O)O (racemic) [(±)-2-Amino-4-phosphonobutyric acid, reference compound]
[3]
  order of potency: 2-amino-7-phosphonoheptanoate>2-amino-5-phosphonopentanoic acid>2-amino-6-phosphonohexanoic acid>2-amino-4-phosphonobutyric acid

## CCOC(=O)CC[C@H](N)C(=O)OCC [Glutamic acid diethylester, reference compound]
[4]
  quisqualate receptor antagonism: quisqualate receptor antagonist
[3]
  activity (in words): inactive

## NC(CCCP(=O)(O)O)C(=O)O (racemic) [(±)-2-Amino-5-phosphonopentanoic acid]
[3]
  order of potency: 2-amino-7-phosphonoheptanoate>2-amino-5-phosphonopentanoic acid>2-amino-6-phosphonohexanoic acid>2-amino-4-phosphonobutyric acid
  Minimum dose to suppress WR: 0.1 μ mole
  ED50 Clonus: 0.022 μ mole
  ED50 Tonus: 0.025 μ mole
  ED50 WR: 0.046 μ mole

## N[C@H](CCCCCP(=O)(O)O)C(=O)O [(-)-2-Amino-7-phosphonoheptanoic acid]
[5]
  blocking of Kainic acid-excited receptors: not a blocker of Kainic acid-excited receptors
[6]
  blocking of ibotenic acid-excited receptors: blocker of ibotenic acid-excited receptors
[3]
  Minimum dose to suppress WR: 0.0033 μ mole
  ED50 Clonus: 0.0008 μ mole
  ED50 Tonus: 0.0008 μ mole
  ED50 WR: 0.0022 μ mole

## NC(CCCCP(=O)(O)O)C(=O)O (racemic) [(±)-2-Amino-6-phosphonohexanoic acid]
[3]
  order of potency: 2-amino-7-phosphonoheptanoate>2-amino-5-phosphonopentanoic acid>2-amino-6-phosphonohexanoic acid>2-amino-4-phosphonobutyric acid
  Minimum dose to suppress WR: 0.25 μ mole
  ED50 Clonus: 0.14 μ mole
  ED50 Tonus: 0.15 μ mole
  ED50 WR: 0.17 μ mole

## NC(CCCCCP(=O)(O)O)C(=O)O (single isomer, unassigned; (+)) [(+)-2-Amino-7-phosphonoheptanoic acid]
[3]
  Minimum dose to suppress WR: 0.033 μ mole
  ED50 Clonus: 0.0018 μ mole
  ED50 Tonus: 0.0018 μ mole
  ED50 WR: 0.0135 μ mole

## NC(CCCCCP(=O)(O)O)C(=O)O (racemic) [(±)-2-Amino-7-phosphonoheptanoic acid, (±)2-amino-7-phosphonoheptanoic acid]
[7]; Mus musculus, ip, intraperitoneal, pentylenetetrazol 85 mg/kg s.c., read-out: ED50 V PTZ (95% fiducial limits)
  ED50: 1180 µmol/kg
[7]; intracerebroventricular, pentylenetetrazol 85 mg/kg s.c.
  ED50 V PTZ (95% fiducial limits): 0.64 (0.19-2.13) μ mole
[7]; mice, systemic administration
  active against pentylenetetrazol seizures, dose: 1.2 mmol/kg
[8]
  active against photosensitive epileptic responses, dose: 1.0 mmol/kg
[3]; Mus musculus, ip, 0.75 h, read-out: Minimum dose to suppress WR
  minimal effective dose: 330 µmol/kg
[3]; Mus musculus, ip, read-out: ED50 Clonus
  ED50: 40 µmol/kg
[3]; Mus musculus, ip, read-out: ED50 Tonus
  ED50: 40 µmol/kg
[3]; Mus musculus, ip, read-out: ED50 WR
  ED50: 180 µmol/kg
[3]
  order of potency: 2-amino-7-phosphonoheptanoate>2-amino-5-phosphonopentanoic acid>2-amino-6-phosphonohexanoic acid>2-amino-4-phosphonobutyric acid
  Minimum dose to suppress WR: 0.01 μ mole
  ED50 Tonus: 0.0008 μ mole
  ED50 WR: 0.004 μ mole
[3]; mice, i.p.
  active against sound-induced seizures, dose: 0.1 to 0.33 mmol/kg
